Laboratory results: patent US9603930B2, “Liquid bendamustine formulation” (Navinta, LLC, priority 2014, dated 2017)

Experiments:
[1] = polyethylene glycol alone; from U.S. Pat. No. 8,609,707; cited from earlier work
[2] = Solubility of bendamustine in solvents
[3] = 2 months of storage at 25° C.; cited from earlier work

| Structure (SMILES) | solubility in PEG alone [1] | solubility in glycerin [2] | stability of the solid on storage [3] |
| --- | --- | --- | --- |
| Cn1c(CCCC(=O)O)nc2cc(N(CCCl)CCCl)ccc21 [Bendamustine, 4-[5-[bis(2-chloroethyl)amino]-1-methylbenzimidazol-2-yl]butanoic acid] | poorly soluble | very high solubility |  |
| Cl.Cn1c(CCCC(=O)O)nc2cc(N(CCCl)CCCl)ccc21 |  |  | degrades |
